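How tested: cells in 96-well plates exposed to compound for 48 hours at five concentrations. GI50 = concentration required for 50% inhibition of growth. TGI marks complete inhibition of growth.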
Assays:
Assay in all cases: NCI-60 cell line screen, 48 h
LOX IMVI melanoma = system: LOX IMVI melanoma
UACC-257 melanoma = system: UACC-257 melanoma
NCI-H23 lung = system: NCI-H23 lung
SK-OV-3 ovarian = system: SK-OV-3 ovarian
SNB-19 CNS = system: SNB-19 CNS
CCRF-CEM leukemia = system: CCRF-CEM leukemia
A549 NSCLC = system: A549 NSCLC
UO-31 renal = system: UO-31 renal
PC-3 prostate = system: PC-3 prostate
OVCAR-5 ovarian = system: OVCAR-5 ovarian
BT-549 breast = system: BT-549 breast
NCI-H226 lung = system: NCI-H226 lung
HCC-2998 colon = system: HCC-2998 colon
UACC-62 melanoma = system: UACC-62 melanoma
MALME-3M melanoma = system: MALME-3M melanoma
A498 renal = system: A498 renal
K-562 leukemia = system: K-562 leukemia
HCT-116 colon = system: HCT-116 colon
786-0 renal = system: 786-0 renal
OVCAR-3 ovarian = system: OVCAR-3 ovarian
DU-145 prostate = system: DU-145 prostate
MDA-MB-231 breast = system: MDA-MB-231 breast
SK-MEL-2 melanoma = system: SK-MEL-2 melanoma
EKVX NSCLC = system: EKVX NSCLC
COLO 205 colon = system: COLO 205 colon
SNB-75 CNS = system: SNB-75 CNS
SR leukemia = system: SR leukemia
KM12 colon = system: KM12 colon
MDA-MB-435 = system: MDA-MB-435
HOP-62 NSCLC = system: HOP-62 NSCLC
SF-268 CNS = system: SF-268 CNS
SK-MEL-28 melanoma = system: SK-MEL-28 melanoma
RXF 393 renal = system: RXF 393 renal
M14 melanoma = system: M14 melanoma
TK-10 renal = system: TK-10 renal
HL-60(TB) leukemia = system: HL-60(TB) leukemia
MCF7 breast = system: MCF7 breast
ACHN renal = system: ACHN renal
SK-MEL-5 melanoma = system: SK-MEL-5 melanoma
IGROV1 ovarian = system: IGROV1 ovarian
NCI-H522 lung = system: NCI-H522 lung
T-47D breast = system: T-47D breast
RPMI-8226 leukemia = system: RPMI-8226 leukemia
CAKI-1 renal = system: CAKI-1 renal
HOP-92 NSCLC = system: HOP-92 NSCLC
SF-539 CNS = system: SF-539 CNS
NCI-H460 lung = system: NCI-H460 lung
SF-295 CNS = system: SF-295 CNS
MOLT-4 leukemia = system: MOLT-4 leukemia
NCI/ADR-RES ovarian = system: NCI/ADR-RES ovarian
SN12C renal = system: SN12C renal
OVCAR-8 ovarian = system: OVCAR-8 ovarian
SW-620 colon = system: SW-620 colon
U251 CNS = system: U251 CNS
HCT-15 colon = system: HCT-15 colon
HS 578T breast = system: HS 578T breast
OVCAR-4 ovarian = system: OVCAR-4 ovarian
HT29 colon = system: HT29 colon

SMILES: Cc1cc(I)cc(CNCCN(C)C)c1O
- GI50 (LOX IMVI melanoma): 44.3 µM
- TGI (LOX IMVI melanoma): > 100 µM
- GI50 (UACC-257 melanoma): > 62.5 µM
- TGI (UACC-257 melanoma): > 100 µM
- GI50 (NCI-H23 lung): 97.3 µM
- TGI (NCI-H23 lung): > 100 µM
- GI50 (SK-OV-3 ovarian): > 100 µM
- TGI (SK-OV-3 ovarian): > 100 µM
- GI50 (SNB-19 CNS): > 100 µM
- TGI (SNB-19 CNS): > 100 µM
- GI50 (CCRF-CEM leukemia): > 100 µM
- TGI (CCRF-CEM leukemia): > 100 µM
- GI50 (A549 NSCLC): 99.7 µM
- TGI (A549 NSCLC): > 100 µM
- GI50 (UO-31 renal): 60.5 µM
- TGI (UO-31 renal): > 100 µM
- GI50 (PC-3 prostate): > 84 µM
- TGI (PC-3 prostate): > 100 µM
- GI50 (OVCAR-5 ovarian): > 100 µM
- TGI (OVCAR-5 ovarian): > 100 µM
- GI50 (BT-549 breast): 37.5 µM
- TGI (BT-549 breast): > 100 µM
- GI50 (NCI-H226 lung): > 100 µM
- TGI (NCI-H226 lung): > 100 µM
- GI50 (HCC-2998 colon): 35.1 µM
- TGI (HCC-2998 colon): > 100 µM
- GI50 (UACC-62 melanoma): 19.7 µM
- TGI (UACC-62 melanoma): 39.2 µM
- GI50 (MALME-3M melanoma): > 87.8 µM
- TGI (MALME-3M melanoma): > 100 µM
- GI50 (A498 renal): 61.5 µM
- TGI (A498 renal): > 100 µM
- GI50 (K-562 leukemia): > 76.1 µM
- TGI (K-562 leukemia): > 100 µM
- GI50 (HCT-116 colon): > 68 µM
- TGI (HCT-116 colon): > 100 µM
- GI50 (786-0 renal): > 92.2 µM
- TGI (786-0 renal): > 100 µM
- GI50 (OVCAR-3 ovarian): > 86 µM
- TGI (OVCAR-3 ovarian): > 100 µM
- GI50 (DU-145 prostate): 98.8 µM
- TGI (DU-145 prostate): > 100 µM
- GI50 (MDA-MB-231 breast): > 59.5 µM
- TGI (MDA-MB-231 breast): > 100 µM
- GI50 (SK-MEL-2 melanoma): > 77.2 µM
- TGI (SK-MEL-2 melanoma): > 100 µM
- GI50 (EKVX NSCLC): > 100 µM
- TGI (EKVX NSCLC): > 100 µM
- GI50 (COLO 205 colon): > 100 µM
- TGI (COLO 205 colon): > 100 µM
- GI50 (SNB-75 CNS): 49.4 µM
- TGI (SNB-75 CNS): > 100 µM
- TGI (SR leukemia): 0.383 µM
- GI50 (KM12 colon): > 100 µM
- TGI (KM12 colon): > 100 µM
- GI50 (MDA-MB-435): 37.1 µM
- TGI (MDA-MB-435): > 100 µM
- GI50 (HOP-62 NSCLC): > 100 µM
- TGI (HOP-62 NSCLC): > 100 µM
- GI50 (SF-268 CNS): 65.9 µM
- TGI (SF-268 CNS): > 100 µM
- GI50 (SK-MEL-28 melanoma): 28.5 µM
- TGI (SK-MEL-28 melanoma): > 80.4 µM
- GI50 (RXF 393 renal): 30.6 µM
- TGI (RXF 393 renal): > 100 µM
- GI50 (M14 melanoma): 33.9 µM
- TGI (M14 melanoma): > 100 µM
- GI50 (TK-10 renal): > 91.6 µM
- TGI (TK-10 renal): > 100 µM
- GI50 (HL-60(TB) leukemia): 57.8 µM
- TGI (HL-60(TB) leukemia): > 100 µM
- GI50 (MCF7 breast): > 100 µM
- TGI (MCF7 breast): > 100 µM
- GI50 (ACHN renal): > 79.6 µM
- TGI (ACHN renal): > 100 µM
- GI50 (SK-MEL-5 melanoma): 27.9 µM
- TGI (SK-MEL-5 melanoma): > 80.8 µM
- GI50 (IGROV1 ovarian): 48.4 µM
- TGI (IGROV1 ovarian): > 100 µM
- GI50 (NCI-H522 lung): > 86.3 µM
- TGI (NCI-H522 lung): > 100 µM
- GI50 (T-47D breast): 76.3 µM
- TGI (T-47D breast): > 100 µM
- GI50 (RPMI-8226 leukemia): 35.2 µM
- TGI (RPMI-8226 leukemia): > 100 µM
- GI50 (CAKI-1 renal): 50.1 µM
- TGI (CAKI-1 renal): > 100 µM
- GI50 (HOP-92 NSCLC): 37.2 µM
- TGI (HOP-92 NSCLC): > 100 µM
- GI50 (SF-539 CNS): > 89.9 µM
- TGI (SF-539 CNS): > 100 µM
- GI50 (NCI-H460 lung): 44.1 µM
- TGI (NCI-H460 lung): > 100 µM
- GI50 (SF-295 CNS): 42.6 µM
- TGI (SF-295 CNS): > 88.1 µM
- GI50 (MOLT-4 leukemia): 44.6 µM
- TGI (MOLT-4 leukemia): > 100 µM
- GI50 (NCI/ADR-RES ovarian): > 84.5 µM
- TGI (NCI/ADR-RES ovarian): > 100 µM
- GI50 (SN12C renal): > 85.6 µM
- TGI (SN12C renal): > 100 µM
- GI50 (OVCAR-8 ovarian): > 100 µM
- TGI (OVCAR-8 ovarian): > 100 µM
- GI50 (SW-620 colon): > 100 µM
- TGI (SW-620 colon): > 100 µM
- GI50 (U251 CNS): 73.5 µM
- TGI (U251 CNS): > 100 µM
- GI50 (HCT-15 colon): 43.8 µM
- TGI (HCT-15 colon): > 100 µM
- GI50 (HS 578T breast): 49.5 µM
- TGI (HS 578T breast): > 100 µM
- GI50 (OVCAR-4 ovarian): > 93.1 µM
- TGI (OVCAR-4 ovarian): > 100 µM
- GI50 (HT29 colon): 35.2 µM
- TGI (HT29 colon): > 100 µM

— PubChem BioAssay (NCI)
